Test system: MDA-MB-231 multicell spheroids, viability
Assay: Anticancer human tumor MDA-MB-231 cell line growth inhibition [PI3K];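 also: spheroids exposed to agents for seven days before reading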;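 as to viability, T/C: percent of vehicle control luminescence with DMSO treated spheroids as 100%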
Settings: for IC50: curve of first compound; for viability, T/C: stronger effect = lower value
Outline: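 Spheroid viability read-out. Co-cultures contained the tumor line plus HUVEC and human MSCs. Each agent was paired with a PI3K inhibitor (inavolisib, alpelisib, duvelisib, copanlisib) across half-log dilutions starting at clinical Cmax, or at 10 microM when Cmax was unknown.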

[1] = second compound 0.0316 µM, first compound 0.0316 µM
[2] = second compound 0.0316 µM, first compound 0.1 µM
[3] = second compound 0.0316 µM, first compound 0.316 µM
[4] = second compound 0.0316 µM, first compound 1 µM
[5] = second compound 0.1 µM, first compound 0.0316 µM
[6] = second compound 0.1 µM, first compound 0.1 µM
[7] = second compound 0.1 µM, first compound 0.316 µM
[8] = second compound 0.1 µM, first compound 1 µM
[9] = second compound 0.316 µM, first compound 0.0316 µM
[10] = second compound 0.316 µM, first compound 0.1 µM
[11] = second compound 0.316 µM, first compound 0.316 µM
[12] = second compound 0.316 µM, first compound 1 µM
[13] = second compound 1 µM, first compound 0.0316 µM
[14] = second compound 1 µM, first compound 0.1 µM
[15] = second compound 1 µM, first compound 0.316 µM
[16] = second compound 1 µM, first compound 1 µM
[17] = second compound 3.16 µM, first compound 0.0316 µM
[18] = second compound 3.16 µM, first compound 0.1 µM
[19] = second compound 3.16 µM, first compound 0.316 µM
[20] = second compound 3.16 µM, first compound 1 µM
[21] = second compound 10 µM, first compound 0.0316 µM
[22] = second compound 10 µM, first compound 0.1 µM
[23] = second compound 10 µM, first compound 0.316 µM
[24] = second compound 10 µM, first compound 1 µM

## CC(C)NCC(C(=O)N1CCN(c2ncnc3c2C(C)CC3O)CC1)c1ccc(Cl)cc1 (centres undefined) + CC(Nc1ncnc2nc[nH]c12)c1cc2cccc(Cl)c2c(=O)n1-c1ccccc1
Second compound 0.0316 µM
  IC50: 8610 nM
Second compound 0.1 µM
  IC50: 8770 nM
Second compound 0.316 µM
  IC50: 6480 nM
Second compound 1 µM
  IC50: 5570 nM
Second compound 3.16 µM
  IC50: 1870 nM
Second compound 10 µM
  IC50: 96.5 nM
[1]
  viability, T/C: 103%
[2]
  viability, T/C: 98%
[3]
  viability, T/C: 97.1%
[4]
  viability, T/C: 91%
Second compound 0.0316 µM, first compound 3.16 µM
  viability, T/C: 64.3%
Second compound 0.0316 µM, first compound 10 µM
  viability, T/C: 47.9%
[5]
  viability, T/C: 106%
[6]
  viability, T/C: 88.5%
[7]
  viability, T/C: 91.8%
[8]
  viability, T/C: 82.2%
Second compound 0.1 µM, first compound 3.16 µM
  viability, T/C: 66.3%
Second compound 0.1 µM, first compound 10 µM
  viability, T/C: 46.8%
[9]
  viability, T/C: 86%
[10]
  viability, T/C: 102%
[11]
  viability, T/C: 86.8%
[12]
  viability, T/C: 77.9%
Second compound 0.316 µM, first compound 3.16 µM
  viability, T/C: 62.1%
Second compound 0.316 µM, first compound 10 µM
  viability, T/C: 43%
[13]
  viability, T/C: 92.1%
[14]
  viability, T/C: 82.3%
[15]
  viability, T/C: 76.5%
[16]
  viability, T/C: 65.9%
Second compound 1 µM, first compound 3.16 µM
  viability, T/C: 55.2%
Second compound 1 µM, first compound 10 µM
  viability, T/C: 44.3%
[17]
  viability, T/C: 63.5%
[18]
  viability, T/C: 62.1%
[19]
  viability, T/C: 63%
[20]
  viability, T/C: 51.6%
Second compound 3.16 µM, first compound 3.16 µM
  viability, T/C: 45.3%
Second compound 3.16 µM, first compound 10 µM
  viability, T/C: 39.1%
[21]
  viability, T/C: 52.5%
[22]
  viability, T/C: 48.6%
[23]
  viability, T/C: 49.3%
[24]
  viability, T/C: 40.7%
Second compound 10 µM, first compound 3.16 µM
  viability, T/C: 37.9%
Second compound 10 µM, first compound 10 µM
  viability, T/C: 31.8%

## CCN1CCN(Cc2ccc(Nc3ncc(F)c(-c4cc(F)c5nc(C)n(C(C)C)c5c4)n3)nc2)CC1 + CC(Nc1ncnc2nc[nH]c12)c1cc2cccc(Cl)c2c(=O)n1-c1ccccc1
Second compound 0.0316 µM
  IC50: > 1000 nM
Second compound 0.1 µM
  IC50: > 1000 nM
Second compound 0.316 µM
  IC50: 988 nM
Second compound 1 µM
  IC50: 85.4 nM
Second compound 3.16 µM
  IC50: 20.1 nM
Second compound 10 µM
  IC50: < 3.16 nM
Second compound 0.0316 µM, first compound 0.00316 µM
  viability, T/C: 96.7%
Second compound 0.0316 µM, first compound 0.01 µM
  viability, T/C: 93.2%
[1]
  viability, T/C: 81.4%
[2]
  viability, T/C: 58.9%
[3]
  viability, T/C: 57.1%
[4]
  viability, T/C: 56.8%
Second compound 0.1 µM, first compound 0.00316 µM
  viability, T/C: 98.2%
Second compound 0.1 µM, first compound 0.01 µM
  viability, T/C: 84.4%
[5]
  viability, T/C: 79%
[6]
  viability, T/C: 59.1%
[7]
  viability, T/C: 55%
[8]
  viability, T/C: 51.9%
Second compound 0.316 µM, first compound 0.00316 µM
  viability, T/C: 92.9%
Second compound 0.316 µM, first compound 0.01 µM
  viability, T/C: 80.7%
[9]
  viability, T/C: 71.2%
[10]
  viability, T/C: 56.8%
[11]
  viability, T/C: 47.4%
[12]
  viability, T/C: 53.5%
Second compound 1 µM, first compound 0.00316 µM
  viability, T/C: 78.4%
Second compound 1 µM, first compound 0.01 µM
  viability, T/C: 70.8%
[13]
  viability, T/C: 53.6%
[14]
  viability, T/C: 47.8%
[15]
  viability, T/C: 50.3%
[16]
  viability, T/C: 49.6%
Second compound 3.16 µM, first compound 0.00316 µM
  viability, T/C: 62.1%
Second compound 3.16 µM, first compound 0.01 µM
  viability, T/C: 54.5%
[17]
  viability, T/C: 49%
[18]
  viability, T/C: 36.8%
[19]
  viability, T/C: 40.5%
[20]
  viability, T/C: 46.7%
Second compound 10 µM, first compound 0.00316 µM
  viability, T/C: 46.5%
Second compound 10 µM, first compound 0.01 µM
  viability, T/C: 40.7%
[21]
  viability, T/C: 37.2%
[22]
  viability, T/C: 29.3%
[23]
  viability, T/C: 41.1%
[24]
  viability, T/C: 49.6%

Source: PubChem BioAssay AID1963958 (Molecular Pharmacology Branch, DTP, NCI, 2024)
